Measured values as given in patent publication US4818767A, “Quinate salts of antimalarial phenanthrenemethanol compounds” (SmithKline Beckman Corporation, priority 1983, dated 1989).
Counter-ions that a name gives are not always drawn. Values belong to the molecule of their own block, whether it stands above or below them.

Experiments:
water solubility = type: physicochemical; settings: weight to weight basis
P. berghei = experiment: antimalarial activity, standard in vivo test procedure against P. berghei in Swiss mice (ED50 on day 4 of treatment); settings: for ED50 Day 4 (mean values): effective dose which decreases the cell parasitemia by 50 percent on day 4 of treatment: Swiss mice infected i.p. with P. berghei, oral intubation in 0.2% methyl cellulose, 1, 4, 16 mg/kg/day × 4 days, 4 mice per group, 5760 min
Protocol: The antimalarial activity of 1-[1,3-dichloro-6-trifluoromethyl-9-phenanthryl]-3-di(n-butyl)aminopropanol quinate (Compound A) was established utilizing the following methodology. Test animals were infected by interperitoneal injection of 9×10^6 parasitized cells of P. berghei contained in 0.25 ml of 1:40 dilution in 0.9% aqueous sodium chloride with potassium citrate added of donor mouse blood which was infected with P. berghei one week earlier. Three days after injection, 3 groups of 4 mice (2 males and 2 females) were treated with Compound A at a dose level of 1, 4 and 16 mg/kg/day for 4 consecutive days. Similarly, a positive control of 3 groups of 4 mice (2 males and 2 females) were treated with halofantrine, as the hydrochloride salt, at a dose level of 1, 4 and 16 mg/kg/day for 4 consecutive days. The route of administration of Compound A and halofantrine was oral intubation of a suspension of each compound in 0.2% methyl cellulose at a constant volume of […]. A negative control group of 4 mice (2 males and 2 females) remained untreated. The results of the above test procedure expressed as an ED50 (the effective dose which decrease the cell parasitemia by 50 percent on day 4 of treatment) are shown below in Table I.

[1] = tested on: Chesson strain of P. vivax; settings: administered over a short period of time, minimum of two doses; cited from earlier work
[2] = tested on: Cambodian Buchanan strain of P. falciparum; settings: administered over a short period of time, minimum of two doses; cited from earlier work
[3] = tested on: multi-drug resistant Vietnam Smith strain of P. falciparum; settings: administered over a short period of time, minimum of two doses; cited from earlier work
[4] = in vivo; cited from earlier work

- solubility (water solubility): ≤ 200 mg/mL
SMILES: CCCCN(CCCC)CCC(O)c1cc2c(Cl)cc(Cl)cc2c2cc(C(F)(F)F)ccc12 (centres unmarked) [Compound A, 1-[1,3-dichloro-6-trifluoromethyl-9-phenanthryl]-3-di(n-butyl)aminopropanol quinate]
- times more effective, on a weight by weight basis, than halofantrine hydrochloride (ED50 on day 4) (P. berghei; P. berghei malaria in mice, compared to halofantrine hydrochloride): at least 6 times
- ED50 Day 4 (mean values): effective dose which decreases the cell parasitemia by 50 percent on day 4 of treatment (P. berghei): ≤ 1 mg/kg

SMILES: CCCCN(CCCC)CCC(O)c1cc2c(Cl)cc(Cl)cc2c2cc(C(F)(F)F)ccc12 (centres unmarked) [Halofantrine (HCl), 1-[1,3-dichloro-6-trifluoromethyl-9-phenanthryl]-3-di-(n-butyl)-aminopropanol hydrochloride]
- effectiveness against Chesson strain of P. vivax [1]: effective
- effectiveness against Cambodian Buchanan strain [2]: effective
- effectiveness against Vietnam Smith strain [3]: effective
- systemic bioavailability [4]: problems with systemic bioavailability remained
- ED50 Day 4 (mean values): effective dose which decreases the cell parasitemia by 50 percent on day 4 of treatment (P. berghei; hydrochloride): 6 mg/kg
